Experimental data taken from ChEMBL document CHEMBL5465560, “Selectivity Literature for EUbOPEN Chemogenomic Library” (2024).
One block for each compound: values may come before it.

Assays:
[1] = biological target: T1, Serine/threonine-protein kinase LATS1 (Homo sapiens) (UniProt O95835); assay: Selectivity interaction (ActivX KiNativ screen (kinase selectivity in THP-1 cell lysates)) EUB0000639a LATS1; format: subcellular; details: lysate, at 5 µM
T1 sequence (whole entry): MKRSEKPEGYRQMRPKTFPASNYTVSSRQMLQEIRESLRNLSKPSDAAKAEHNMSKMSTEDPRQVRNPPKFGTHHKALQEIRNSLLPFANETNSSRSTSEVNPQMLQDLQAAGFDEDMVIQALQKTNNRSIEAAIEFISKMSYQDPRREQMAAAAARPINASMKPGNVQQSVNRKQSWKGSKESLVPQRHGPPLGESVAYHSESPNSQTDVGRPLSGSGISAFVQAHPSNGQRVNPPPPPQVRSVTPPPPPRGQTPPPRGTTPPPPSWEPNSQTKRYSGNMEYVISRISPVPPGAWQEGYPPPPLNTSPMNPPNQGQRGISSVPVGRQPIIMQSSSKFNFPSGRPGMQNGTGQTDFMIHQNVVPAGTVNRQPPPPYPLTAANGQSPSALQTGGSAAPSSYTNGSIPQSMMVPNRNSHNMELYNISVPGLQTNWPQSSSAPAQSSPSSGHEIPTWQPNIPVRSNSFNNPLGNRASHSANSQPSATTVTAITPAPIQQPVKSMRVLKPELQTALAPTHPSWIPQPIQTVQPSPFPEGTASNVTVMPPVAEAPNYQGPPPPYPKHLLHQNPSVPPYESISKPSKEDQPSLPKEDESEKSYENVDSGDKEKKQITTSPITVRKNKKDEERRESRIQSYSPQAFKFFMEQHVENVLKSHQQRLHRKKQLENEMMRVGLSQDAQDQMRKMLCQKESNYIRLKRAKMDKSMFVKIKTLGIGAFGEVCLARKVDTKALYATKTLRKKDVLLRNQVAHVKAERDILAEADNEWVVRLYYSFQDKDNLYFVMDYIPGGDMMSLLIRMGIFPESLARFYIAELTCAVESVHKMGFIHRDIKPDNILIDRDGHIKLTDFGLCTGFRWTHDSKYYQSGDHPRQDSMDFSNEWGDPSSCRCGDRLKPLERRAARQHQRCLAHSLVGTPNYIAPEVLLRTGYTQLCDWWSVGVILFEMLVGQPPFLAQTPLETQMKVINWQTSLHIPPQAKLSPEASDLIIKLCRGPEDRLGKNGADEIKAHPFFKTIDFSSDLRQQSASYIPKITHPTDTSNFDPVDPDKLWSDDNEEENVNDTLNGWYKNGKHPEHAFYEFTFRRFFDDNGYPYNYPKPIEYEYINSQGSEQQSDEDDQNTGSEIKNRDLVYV

[2] = biological target: T2, Serine/threonine-protein kinase D2 (Homo sapiens) (UniProt Q9BZL6); assay: Selectivity interaction (ActivX KiNativ screen (kinase selectivity in THP-1 cell lysates)) EUB0000639a PRKD2; format: subcellular; details: lysate, at 1 µM
T2 sequence (whole entry): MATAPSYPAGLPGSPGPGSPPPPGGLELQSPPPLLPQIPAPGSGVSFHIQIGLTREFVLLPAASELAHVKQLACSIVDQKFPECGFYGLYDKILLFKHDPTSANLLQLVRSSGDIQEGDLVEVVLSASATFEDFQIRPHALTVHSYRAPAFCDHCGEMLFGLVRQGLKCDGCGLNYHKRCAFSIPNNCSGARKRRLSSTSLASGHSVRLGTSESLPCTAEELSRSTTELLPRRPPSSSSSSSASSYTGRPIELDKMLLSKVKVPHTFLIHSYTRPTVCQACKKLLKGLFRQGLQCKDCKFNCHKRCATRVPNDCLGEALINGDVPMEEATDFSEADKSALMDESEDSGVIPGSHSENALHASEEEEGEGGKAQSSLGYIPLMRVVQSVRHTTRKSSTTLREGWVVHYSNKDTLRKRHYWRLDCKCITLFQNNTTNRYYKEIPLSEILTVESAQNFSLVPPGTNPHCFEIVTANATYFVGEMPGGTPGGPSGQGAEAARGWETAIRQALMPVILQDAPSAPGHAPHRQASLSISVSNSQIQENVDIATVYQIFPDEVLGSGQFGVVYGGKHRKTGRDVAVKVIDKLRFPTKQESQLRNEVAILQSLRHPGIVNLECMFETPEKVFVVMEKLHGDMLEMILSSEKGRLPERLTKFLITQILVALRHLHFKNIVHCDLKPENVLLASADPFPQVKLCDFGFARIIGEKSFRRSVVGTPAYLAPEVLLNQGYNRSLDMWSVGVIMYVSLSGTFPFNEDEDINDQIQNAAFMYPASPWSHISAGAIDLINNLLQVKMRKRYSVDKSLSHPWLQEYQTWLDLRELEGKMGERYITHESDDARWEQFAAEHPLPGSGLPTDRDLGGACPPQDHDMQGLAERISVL

[3] = biological target: T3, Serine/threonine-protein kinase Sgk3 (Homo sapiens) (UniProt Q96BR1); assay: Selectivity interaction (KinomeScan (DiscoverX)) EUB0001079a SGK3; details: at 1 µM
T3 sequence (whole entry): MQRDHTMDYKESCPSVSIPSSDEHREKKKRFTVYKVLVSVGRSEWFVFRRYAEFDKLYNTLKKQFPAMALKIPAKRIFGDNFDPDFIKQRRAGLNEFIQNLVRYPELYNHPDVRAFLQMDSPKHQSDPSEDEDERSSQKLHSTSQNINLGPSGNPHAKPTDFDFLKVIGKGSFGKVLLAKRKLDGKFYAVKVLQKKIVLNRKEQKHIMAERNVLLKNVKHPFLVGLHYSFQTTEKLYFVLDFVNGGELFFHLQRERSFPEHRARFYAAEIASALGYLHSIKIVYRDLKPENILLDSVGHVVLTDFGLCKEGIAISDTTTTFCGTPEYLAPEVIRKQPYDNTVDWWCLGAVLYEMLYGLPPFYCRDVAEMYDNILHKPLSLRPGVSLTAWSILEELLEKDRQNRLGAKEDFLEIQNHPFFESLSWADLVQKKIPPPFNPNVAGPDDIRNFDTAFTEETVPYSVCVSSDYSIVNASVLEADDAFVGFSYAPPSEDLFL

[4] = biological target: Dual specificity mitogen-activated protein kinase kinase 2 (Homo sapiens) (UniProt P36507); assay: Selectivity interaction (KinomeScan (DiscoverX)) EUB0000045b MAP2K2
[5] = biological target: Proto-oncogene tyrosine-protein kinase Src (Homo sapiens, UniProt P12931); assay: Selectivity interaction (SelectScreen profiling (Invitrogen)) EUB0000607a SRC; details: at 2 µM
[6] = biological target: Serine/threonine-protein kinase 32C (Homo sapiens) (UniProt Q86UX6); assay: Selectivity interaction (KinomeScan (DiscoverX)) EUB0000666a STK32C; details: at 10 µM
Sequence of Serine/threonine-protein kinase 32C (Homo sapiens) (Q86UX6 whole entry): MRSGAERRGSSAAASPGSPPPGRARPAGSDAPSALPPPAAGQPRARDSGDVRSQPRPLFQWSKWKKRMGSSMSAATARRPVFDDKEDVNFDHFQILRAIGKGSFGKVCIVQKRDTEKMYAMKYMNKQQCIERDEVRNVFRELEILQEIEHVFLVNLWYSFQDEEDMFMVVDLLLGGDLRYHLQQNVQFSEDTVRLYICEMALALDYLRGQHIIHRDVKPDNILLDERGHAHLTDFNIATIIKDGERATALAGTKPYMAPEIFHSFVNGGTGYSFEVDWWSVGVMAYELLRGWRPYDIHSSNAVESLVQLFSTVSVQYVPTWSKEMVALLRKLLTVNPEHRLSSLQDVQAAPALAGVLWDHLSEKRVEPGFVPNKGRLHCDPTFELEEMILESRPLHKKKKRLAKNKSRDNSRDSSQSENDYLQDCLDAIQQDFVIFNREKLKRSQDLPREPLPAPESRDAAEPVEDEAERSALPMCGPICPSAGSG

Sequence of Dual specificity mitogen-activated protein kinase kinase 2 (Homo sapiens) (P36507 whole entry): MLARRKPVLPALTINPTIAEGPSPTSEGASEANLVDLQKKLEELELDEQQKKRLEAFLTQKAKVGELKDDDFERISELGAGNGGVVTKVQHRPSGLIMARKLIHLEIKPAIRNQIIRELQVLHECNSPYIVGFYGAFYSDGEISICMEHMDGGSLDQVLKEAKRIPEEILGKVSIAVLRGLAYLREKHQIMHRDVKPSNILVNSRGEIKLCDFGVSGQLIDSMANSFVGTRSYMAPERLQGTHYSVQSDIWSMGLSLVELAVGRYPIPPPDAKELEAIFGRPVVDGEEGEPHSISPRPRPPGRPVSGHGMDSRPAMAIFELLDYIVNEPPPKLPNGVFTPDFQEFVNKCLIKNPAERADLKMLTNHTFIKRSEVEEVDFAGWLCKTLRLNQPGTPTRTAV
Sequence of Proto-oncogene tyrosine-protein kinase Src (P12931 2-536 limits assumed): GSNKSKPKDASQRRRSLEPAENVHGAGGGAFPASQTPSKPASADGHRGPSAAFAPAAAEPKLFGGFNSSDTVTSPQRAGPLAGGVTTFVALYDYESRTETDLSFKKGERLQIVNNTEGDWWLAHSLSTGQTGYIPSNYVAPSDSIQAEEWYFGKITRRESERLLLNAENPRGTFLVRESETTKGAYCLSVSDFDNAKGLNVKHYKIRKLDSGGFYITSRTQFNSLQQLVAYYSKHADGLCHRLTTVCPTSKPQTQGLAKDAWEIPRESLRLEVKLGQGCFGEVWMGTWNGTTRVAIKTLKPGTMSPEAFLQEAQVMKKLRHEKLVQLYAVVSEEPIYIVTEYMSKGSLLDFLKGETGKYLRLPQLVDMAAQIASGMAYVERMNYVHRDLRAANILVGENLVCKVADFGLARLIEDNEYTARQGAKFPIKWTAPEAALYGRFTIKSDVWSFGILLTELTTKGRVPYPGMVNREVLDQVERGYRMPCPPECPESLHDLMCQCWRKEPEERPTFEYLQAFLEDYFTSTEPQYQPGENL

- % of inhibition [1]: -31.2%
- % of inhibition [2]: 8%
Structure (SMILES): CC[C@@H]1[C@H](F)C(=O)N[C@@H]1COc1nccc2cc(C(N)=O)c(OC)cc12 [ZIMLOVISERTIB]

Structure (SMILES): Nc1cnc(N2CCc3cc(S(=O)(=O)Nc4c(F)cc(Cl)cc4F)cc(N4CCCC4=O)c32)nc1 [TP-020n]
- % of control [3]: 100%

Structure (SMILES): C=CC(=O)Nc1cc(-n2c(=O)ccc3cnc4ccc(-c5ccc(NS(C)(=O)=O)cc5)cc4c32)ccc1C
- % of control ([4]; at 1 µM): 96%
- % of control ([4]; at 10 µM): 66%

Structure (SMILES): CNC(=O)Nc1ccc(-c2nc(N3CC4CCC(C3)O4)c3cnn(C4CCC5(CC4)OCCO5)c3n2)cc1
- % of inhibition [5]: 3%

Structure (SMILES): O=C(NOC[C@H](O)CO)c1ccc(F)c(F)c1Nc1ccc(I)cc1F
- % of control [6]: 100%
